Tests used:
[1] = Induction of apoptosis in mouse BaF3 cells harboring CCDC6-RET G810R mutant assessed as necrotic cells at 100 nM incubated for 48 hrs by Annexin V-PE staining based flow cytometry analysis (Rvb =0.30%); format: functional
[2] = Induction of apoptosis in mouse BaF3 cells harboring CCDC6-RET assessed as necrotic cells at 30 nM incubated for 48 hrs by Annexin V-PE staining based flow cytometry analysis (Rvb =0.19%); format: functional
[3] = Induction of apoptosis in mouse BaF3 cells harboring CCDC6-RET G810R mutant assessed as necrotic cells at 10 nM incubated for 48 hrs by Annexin V-PE staining based flow cytometry analysis (Rvb =0.30%); format: functional
[4] = Induction of apoptosis in mouse BaF3 cells harboring CCDC6-RET G810C mutant assessed as viable cells at 30 nM incubated for 48 hrs by Annexin V-PE staining based flow cytometry analysis (Rvb =86.47%); format: functional; settings: read-out: Activity
Ephrin type-A receptor 2 = Ephrin type-A receptor 2 (Homo sapiens, UniProt P29317); test: Inhibition of EPHA2 (unknown origin)
Chain of Ephrin type-A receptor 2 (P29317 whole entry): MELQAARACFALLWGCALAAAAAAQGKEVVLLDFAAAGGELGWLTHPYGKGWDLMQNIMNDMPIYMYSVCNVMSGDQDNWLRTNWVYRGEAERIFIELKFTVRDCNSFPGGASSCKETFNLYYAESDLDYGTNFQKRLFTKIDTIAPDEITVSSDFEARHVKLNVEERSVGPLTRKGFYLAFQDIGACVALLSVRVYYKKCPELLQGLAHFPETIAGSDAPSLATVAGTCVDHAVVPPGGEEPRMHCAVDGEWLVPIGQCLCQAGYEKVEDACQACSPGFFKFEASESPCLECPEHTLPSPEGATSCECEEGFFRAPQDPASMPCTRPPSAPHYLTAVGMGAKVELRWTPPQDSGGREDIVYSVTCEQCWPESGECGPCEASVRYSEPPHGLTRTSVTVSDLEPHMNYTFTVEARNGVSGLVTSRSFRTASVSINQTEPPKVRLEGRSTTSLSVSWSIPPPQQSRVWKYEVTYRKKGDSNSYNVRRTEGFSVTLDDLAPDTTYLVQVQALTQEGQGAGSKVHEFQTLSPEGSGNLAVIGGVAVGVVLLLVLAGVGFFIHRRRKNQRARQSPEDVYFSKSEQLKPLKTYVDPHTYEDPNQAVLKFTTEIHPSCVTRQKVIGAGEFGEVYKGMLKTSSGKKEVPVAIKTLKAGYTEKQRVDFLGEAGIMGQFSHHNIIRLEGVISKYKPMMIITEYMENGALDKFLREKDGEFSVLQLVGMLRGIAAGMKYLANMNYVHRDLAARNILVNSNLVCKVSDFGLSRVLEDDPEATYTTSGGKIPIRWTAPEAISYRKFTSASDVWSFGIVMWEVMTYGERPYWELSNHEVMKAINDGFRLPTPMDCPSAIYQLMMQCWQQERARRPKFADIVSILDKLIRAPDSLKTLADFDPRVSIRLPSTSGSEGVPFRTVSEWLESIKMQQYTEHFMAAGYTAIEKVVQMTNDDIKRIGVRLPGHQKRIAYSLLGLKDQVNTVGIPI

[5] = Induction of apoptosis in mouse BaF3 cells harboring CCDC6-RET G810R mutant assessed as early apoptotic cells at 300 nM incubated for 48 hrs by Annexin V-PE staining based flow cytometry analysis (Rvb =10 %); format: functional
BaF3 [6] = test: Antitumor activity against mouse BaF3 cells implanted in SCID mouse assessed as tumor growth inhibition at 25 mg/kg, ip administered once daily for 10 days; format: functional; settings: BaF3, 240 h, time 10 day, read-out: TGI
[7] = Induction of apoptosis in mouse BaF3 cells harboring CCDC6-RET assessed as late apoptotic cells at 100 nM incubated for 48 hrs by Annexin V-PE staining based flow cytometry analysis (Rvb =2.44%); format: functional
[8] = Induction of apoptosis in mouse BaF3 cells harboring CCDC6-RET assessed as late apoptotic cells at 30 nM incubated for 48 hrs by Annexin V-PE staining based flow cytometry analysis (Rvb =2.44%); format: functional
[9] = Induction of cell cycle arrest in mouse BaF3 cells harboring CCDC6-RET assessed as accumulation of cells at G2/M phase at 30 nM incubated for 24 hrs by propidium iodide staining based analysis (reference value: 34.11%); format: functional
[10] = Induction of apoptosis in mouse BaF3 cells harboring CCDC6-RET assessed as necrotic cells at 100 nM incubated for 48 hrs by Annexin V-PE staining based flow cytometry analysis (Rvb =0.19%); format: functional
[11] = Induction of cell cycle arrest in mouse BaF3 cells harboring CCDC6-RET G810C mutant assessed as accumulation of cells at S phase at 10 nM incubated for 24 hrs by propidium iodide staining based analysis (reference value: 12.47%); format: functional
[12] = Induction of apoptosis in mouse BaF3 cells harboring CCDC6-RET G810C mutant assessed as necrotic cells at 10 nM incubated for 48 hrs by Annexin V-PE staining based flow cytometry analysis (Rvb =0.48%); format: functional
[13] = Induction of cell cycle arrest in mouse BaF3 cells harboring CCDC6-RET G810R mutant assessed as accumulation of cells at S phase at 300 nM incubated for 24 hrs by propidium iodide staining based analysis (reference value: 13.66%); format: functional
BaF3 [14] = test: Antiproliferative activity against mouse BaF3 cells harbouring CCDC6-RET G810R mutant assessed as inhibition of cell proliferation incubated for 72 hrs by CCK-8 assay; format: functional, cell-based; settings: BaF3, 72 h
[15] = Induction of cell cycle arrest in mouse BaF3 cells harboring CCDC6-RET assessed as accumulation of cells at G2/M phase at 10 nM incubated for 24 hrs by propidium iodide staining based analysis (reference value: 34.11%); format: functional
[16] = target: Proto-oncogene tyrosine-protein kinase receptor Ret (Homo sapiens, UniProt P07949, G810R); test: Inhibition of RET (unknown origin) G810R mutant
Chain of Proto-oncogene tyrosine-protein kinase receptor Ret (P07949 29-1114 G810R limits assumed): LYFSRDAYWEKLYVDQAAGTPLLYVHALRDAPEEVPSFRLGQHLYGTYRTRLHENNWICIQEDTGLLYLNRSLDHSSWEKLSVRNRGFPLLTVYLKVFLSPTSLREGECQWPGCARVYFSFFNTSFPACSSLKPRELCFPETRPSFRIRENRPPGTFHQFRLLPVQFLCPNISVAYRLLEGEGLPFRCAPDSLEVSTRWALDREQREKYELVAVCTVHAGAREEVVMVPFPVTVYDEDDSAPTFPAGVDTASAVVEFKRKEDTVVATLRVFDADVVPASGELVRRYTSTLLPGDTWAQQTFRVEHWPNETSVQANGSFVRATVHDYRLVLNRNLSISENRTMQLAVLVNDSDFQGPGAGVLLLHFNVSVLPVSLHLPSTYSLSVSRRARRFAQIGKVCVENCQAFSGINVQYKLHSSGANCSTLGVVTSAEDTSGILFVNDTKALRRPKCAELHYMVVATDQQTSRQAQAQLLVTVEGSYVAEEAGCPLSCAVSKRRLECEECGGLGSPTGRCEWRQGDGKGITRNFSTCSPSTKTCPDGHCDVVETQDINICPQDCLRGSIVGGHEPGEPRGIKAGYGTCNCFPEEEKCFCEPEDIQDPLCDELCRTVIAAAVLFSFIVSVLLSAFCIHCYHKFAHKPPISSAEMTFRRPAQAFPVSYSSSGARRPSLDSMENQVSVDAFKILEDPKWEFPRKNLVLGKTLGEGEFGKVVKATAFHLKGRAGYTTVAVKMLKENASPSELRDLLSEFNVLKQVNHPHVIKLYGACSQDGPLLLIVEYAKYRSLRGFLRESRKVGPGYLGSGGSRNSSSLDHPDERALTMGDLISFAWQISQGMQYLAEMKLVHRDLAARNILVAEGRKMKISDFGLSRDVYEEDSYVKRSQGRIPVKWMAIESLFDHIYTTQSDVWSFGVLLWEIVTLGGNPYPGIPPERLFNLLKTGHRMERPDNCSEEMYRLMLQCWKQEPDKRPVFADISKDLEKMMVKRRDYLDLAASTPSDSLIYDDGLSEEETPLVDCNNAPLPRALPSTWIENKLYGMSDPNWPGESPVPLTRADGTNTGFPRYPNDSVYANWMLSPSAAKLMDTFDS

[17] = Induction of apoptosis in mouse BaF3 cells harboring CCDC6-RET assessed as early apoptotic cells at 100 nM incubated for 48 hrs by Annexin V-PE staining based flow cytometry analysis (Rvb =6.21%); format: functional
BaF3 [18] = test: Inhibition of RET phosphorylation in mouse BaF3 cells harboring CCDC6-RET incubated for 12 hrs by Western blotting analysis; format: cell-based; settings: dose <= 300.0 nM
[19] = Induction of cell cycle arrest in mouse BaF3 cells harboring CCDC6-RET G810C mutant assessed as accumulation of cells at G0/G1 phase at 10 nM incubated for 24 hrs by propidium iodide staining based analysis (reference value: 52.11%); format: functional
[20] = Induction of cell cycle arrest in mouse BaF3 cells harboring CCDC6-RET G810R mutant assessed as accumulation of cells at G2/M phase at 30 nM incubated for 24 hrs by propidium iodide staining based analysis (reference value: 33.61%); format: functional
BaF3 [21] = test: Inhibition of SHC phosphorylation in mouse BaF3 cells harboring CCDC6-RET G810R mutant incubated for 12 hrs by Western blotting analysis; format: cell-based; settings: dose <= 300.0 nM
[22] = Induction of apoptosis in mouse BaF3 cells harboring CCDC6-RET G810R mutant assessed as early apoptotic cells at 30 nM incubated for 48 hrs by Annexin V-PE staining based flow cytometry analysis (Rvb =10 %); format: functional
[23] = Induction of cell cycle arrest in mouse BaF3 cells harboring CCDC6-RET G810C mutant assessed as accumulation of cells at G2/M phase at 10 nM incubated for 24 hrs by propidium iodide staining based analysis (reference value: 34.75%); format: functional
[24] = Induction of cell cycle arrest in mouse BaF3 cells harboring CCDC6-RET assessed as accumulation of cells at S phase at 10 nM incubated for 24 hrs by propidium iodide staining based analysis (reference value: 13.27%); format: functional
[25] = Induction of apoptosis in mouse BaF3 cells harboring CCDC6-RET G810R mutant assessed as viable cells at 10 nM incubated for 48 hrs by Annexin V-PE staining based flow cytometry analysis (Rvb =86.40%); format: functional; settings: read-out: Activity
[26] = Induction of cell cycle arrest in mouse BaF3 cells harboring CCDC6-RET assessed as accumulation of cells at G0/G1 phase at 10 nM incubated for 24 hrs by propidium iodide staining based analysis (reference value: 52.51%); format: functional
[27] = Induction of apoptosis in mouse BaF3 cells harboring CCDC6-RET assessed as late apoptotic cells at 300 nM incubated for 48 hrs by Annexin V-PE staining based flow cytometry analysis (Rvb =2.44%); format: functional
[28] = Induction of apoptosis in mouse BaF3 cells harboring CCDC6-RET G810C mutant assessed as necrotic cells at 100 nM incubated for 48 hrs by Annexin V-PE staining based flow cytometry analysis (Rvb =0.48%); format: functional
BaF3 [29] = test: Antiproliferative activity against mouse BaF3 cells harbouring CCDC6-RET G810C mutant assessed as inhibition of cell proliferation incubated for 72 hrs by CCK-8 assay; format: functional, cell-based; settings: BaF3, 72 h
BaF3 [30] = test: Inhibition of RET phosphorylation in mouse BaF3 cells harboring CCDC6-RET G810C mutant incubated for 12 hrs by Western blotting analysis; format: cell-based; settings: dose <= 300.0 nM

**Q.** With `COc1cncc(-c2cn[nH]c2/C=C/c2ccc(NC(=O)Nc3cc(C(C)(C)C(F)(F)F)on3)c(Cl)c2)c1` as the compound, how does the Activity [1] read?
**A.** 0.79%

**Q.** And the Activity [2]?
**A.** 0.03%

**Q.** And the Activity [3]?
**A.** 0.17%

**Q.** And the viability at 0.03 µM [4]?
**A.** 86.2%

**Q.** What about the IC50 (Ephrin type-A receptor 2) of the same compound?
**A.** 63.4 nM

**Q.** And the Activity [5]?
**A.** 0.29%

**Q.** And the inhibition in vivo at 25 mg/kg (BaF3 [6])?
**A.** 39.7%

**Q.** And the Activity [7]?
**A.** 1.21%

**Q.** And the Activity [8]?
**A.** 0.8%

**Q.** And the Activity [9]?
**A.** 30.23%

**Q.** And the Activity [10]?
**A.** 0.05%

**Q.** And the Activity [11]?
**A.** 12.31%

**Q.** What about the Activity [12] of the same compound?
**A.** 0.49%

**Q.** And the Activity [13]?
**A.** 4.8%

**Q.** What about the IC50 (BaF3 [14]) of the same compound?
**A.** 28.4 nM

**Q.** And the Activity [15]?
**A.** 32.46%

**Q.** What about the IC50 [16] of the same compound?
**A.** 32.4 nM

**Q.** And the Activity [17]?
**A.** 74.7%

**Q.** What about the inhibition (BaF3 [18]) of the same compound?
**A.** Dose-dependent-effect

**Q.** And the Activity [19]?
**A.** 52.74%

**Q.** And the Activity [20]?
**A.** 32.17%

**Q.** And the inhibition (BaF3 [21])?
**A.** Dose-dependent-effect

**Q.** What about the Activity [22] of the same compound?
**A.** 9.96%

**Q.** And the Activity [23]?
**A.** 33.74%

**Q.** And the Activity [24]?
**A.** 13.37%

**Q.** And the viability at 0.01 µM [25]?
**A.** 86.4%

**Q.** What about the Activity [26] of the same compound?
**A.** 54%

**Q.** What about the Activity [27] of the same compound?
**A.** 1.39%

**Q.** And the Activity [28]?
**A.** 0.24%

**Q.** What about the IC50 (BaF3 [29]) of the same compound?
**A.** 25.7 nM

**Q.** And the inhibition (BaF3 [30])?
**A.** Dose-dependent-effect

From ChEMBL document CHEMBL6103575, “Design, synthesis and evaluation of (E)-1-(4-(2-(1H-pyrazol-5-yl)vinyl)phenyl) derivatives as next generation selective RET inhibitors overcoming RET solvent front mutations (G810C/R)” (Eur J Med Chem, 2025)
